How the values were obtained:
[1] = Solubility in EtOH at room temperature; type: physicochemical; conditions: form (II) vs form (I)
[2] = Thermodynamic stability from DSC data (melting point, enthalpy of fusion, Burger-Ramberger rules); type: physicochemical; conditions: heating rate 10° C./min, 30° C. to 140° C., all considered temperatures
Protocol: Further, differential scanning calorimetry (DSC) data reveal the difference between the two polymorphic forms of Rotigotine (FIGS. 7 and 8). […] Therefore, the two polymorphs of Rotigotine appear to be monotropically related.
Thermal behavior investigations of Rotigotine of polymorphic form (I) (batch 1608726) and of polymorphic form (II) (batch 7769396) were performed on a Mettler Toledo DSC system and on a TA instrument (Q-1000). The analyses were carried out with a heating rate of 10° C./min in pierced aluminum crucibles in a temperature range from 30° C. to 140° C.
In sum, the two polymorphic forms of Rotigotine can be differentiated by their respective melting point and their respective enthalpy of fusion. […] Therefore, the two polymorphs of Rotigotine are most probably monotropically related.

solubility in EtOH relative to polymorphic form (I) [1]: at least five times lower
Compound: CCCN(CCc1cccs1)[C@H]1CCc2c(O)cccc2C1 [polymorphic form (II), (−)-5,6,7,8-tetrahydro-6-[propyl-[2-(2-thienyl)ethyl]-amino]-1-naphthalenol]
thermodynamic stability relative to the other polymorph [2]: thermodynamically more stable than polymorphic form (I)

— patent US8592477B2, “Polymorphic form of rotigotine and process for production” (UCB Pharma GmbH, priority 2007, dated 2013)
